What is called MIC is the least concentration at which growth counts as inhibited. Low readings indicate a more susceptible organism, high ones a less susceptible organism.

In brackets after ≈: the same amount, converted by molar mass. A value given as a limit tells only on which side of the number the result lay.

In one assay the test system is Staphylococcus aureus. Description: Antibacterial activity against methicillin-resistant Staphylococcus aureus ST398. The format is functional.
Take `Cc1onc(-c2ccccc2)c1C(=O)N[C@@H]1C(=O)N2[C@@H]1SC(C)(C)[C@@H]2C(=O)O` [OXACILLIN]: it took 8 µg/mL (≈ 19.9 µM) to inhibit growth (MIC).
`COc1cc(Cc2cnc(N)nc2N)cc(OC)c1OC` [TRIMETHOPRIM]: the MIC is > 256 µg/mL.
As to `CC1(C)S[C@@H]2[C@H](NC(=O)[C@H](N)c3ccccc3)C(=O)N2[C@H]1C(=O)O` [AMPICILLIN], the minimum inhibitory concentration (MIC) amounted to 8 µg/mL (≈ 22.9 µM).
Regarding `CC1(C)S[C@@H]2[C@H](NC(=O)Cc3ccccc3)C(=O)N2[C@H]1C(=O)O` [PENICILLIN G], the MIC was found to be 8 µg/mL (≈ 23.9 µM).
On the same count and under the same terms, under `CN(C)[C@@H]1C(O)=C(C(N)=O)C(=O)[C@@]2(O)C(O)=C3C(=O)c4c(O)cccc4[C@@](C)(O)[C@H]3C[C@@H]12` [TETRACYCLINE] stands 64 µg/mL (≈ 144 µM).

Another assay concerns Escherichia coli. The experiment in a line: Antibacterial activity against Escherichia coli JM109 expressing Bgl2.
In the case of `COc1cc(Cc2cnc(N)nc2N)cc(OC)c1OC` [TRIMETHOPRIM], the MIC was ≥ 512 µg/mL.
